Each structure is given as a SMILES string.

This is an account of results in patent US20040043959A1, “Combination therapies for treating methylthioadenosine phosphorylase deficient cells” (priority 2002, published 2004).

The target in the assay is T1, Human MTAP (Homo sapiens, UniProt Q13126).
T1 construct: six-histidine tag (His6) (N); made in house; host or cells: E. coli BL21 DE3
T1 sequence (Q13126 1-283): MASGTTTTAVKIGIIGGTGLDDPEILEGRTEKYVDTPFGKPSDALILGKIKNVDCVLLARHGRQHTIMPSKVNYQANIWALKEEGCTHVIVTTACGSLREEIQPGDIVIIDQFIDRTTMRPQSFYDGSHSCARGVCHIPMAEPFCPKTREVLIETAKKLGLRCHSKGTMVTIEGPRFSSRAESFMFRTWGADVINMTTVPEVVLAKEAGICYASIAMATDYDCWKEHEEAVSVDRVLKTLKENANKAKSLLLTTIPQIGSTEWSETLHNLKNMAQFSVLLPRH
As to the kind of experiment: MTAP substrate assay, coupled spectrophotometric (adenine, xanthine oxidase). The assay is classed as biochemical. The following applies: 2 nM MTAP; for activity at 50 µM: 10 min, compound 50 uM, relative to MTA at 50 uM, read-out: MT-A—50: initial velocity as a percentage of the initial velocity with MTA as substrate; for MT-A—10: initial velocity as a percentage of the initial velocity with MTA as substrate: compound 10 uM, relative to MTA at 10 uM. Here is the method: An enzymatic assay to determine the activity of MTAP against a given substrate was performed. Human MTAP containing an N-terminal six-histidine tag was expressed in E. coli BL21 DE3 cells. The protein was purified to homogeneity by Ni2+ affinity chromatography. Enzymatic activity was measured using a coupled spectrophotometric assay designed to monitor the reaction product adenine (Savarese, T. M., Crabtree, G. W., and Parks, R. E. Jr., (1980) Biochem. Pharmacol. 30, 189-199). Various concentrations of the indicated 5′-deoxymethylthio adenosine (MTA) or substrate were incubated in assay buffer (40 mM potassium phosphate buffer, 1 mM, and DTT 0.8 units/ml xanthine oxidase coupling enzyme) for 5 minutes at 37° C. The reaction was initiated by the addition of MTAP. The exact concentration of enzyme used varied for each substrate tested and ranged from 2 nM to 500 nM. Activity as a function of enzyme concentration was determined for each substrate tested to ensure that the appropriate enzyme concentration was used. Activity was detected by continuous monitoring of absorbance at 305 nm for 10 minutes (ΔE=15,500 M^−1).
Library compounds (10 and 50 uM) were tested using the assay described above with 2 nM MTAP enzyme. The resultant initial velocities are reported as a percentage of the initial velocity observed when MTA is the substrate. MTA controls, 10 and 50 uM concentrations, were run on each plate alongside the library compounds.

For the molecule `COc1ccc(OC)c(SC[C@H]2O[C@@H](n3cnc4c(N)ncnc43)[C@H](O)[C@@H]2O)c1` [2(G)(24), (2R, 3R, 4S, 5S)-2-(6-amino-9H-purin-9-yl)-5-{[(2,5-dimethoxy-phenyl)-thio]methyl}tetrahydrofuran-3,4-diol], the activity at 50 µM came to 23% and the “MT-A—10: initial velocity as a percentage of the initial velocity with MTA as substrate” value is reported as 4%.
The corresponding values for `COc1ccc(SC[C@H]2O[C@@H](n3cnc4c(N)ncnc43)[C@H](O)[C@@H]2O)cc1OC` [2(G)(25), (2R, 3R, 4S, 5S)-2-(6-amino-9H-purin-9-yl)-5-{[(3,4-dimethoxyphenyl)-thio]methyl}tetrahydro-furan-3,4-diol] are 30% and 5%.
The like results for `CCc1ccccc1SC[C@H]1O[C@@H](n2cnc3c(N)ncnc32)[C@H](O)[C@@H]1O` [2(G)(26), (2R, 3R, 4S, 5S)-2-(6-amino-9H-purin-9-yl)-5-{[(2-ethylphenyl)-thio]methyl}tetrahydro-furan-3,4-diol] were, in that order, 7% and 6%.
As to `Nc1ncnc2c1ncn2[C@@H]1O[C@H](CSc2ccccc2O)[C@@H](O)[C@H]1O` [2(G)(27), (2R, 3R, 4S, 5S)-2-(6-amino-9H-purin-9-yl)-5-{[(2-hydroxyphenyl)-thio]methyl}tetrahydro-furan-3,4-diol], the activity at 50 µM was found to be 23% and the “MT-A—10: initial velocity as a percentage of the initial velocity with MTA as substrate” value came to 7%.
With `Cc1ccc(C)c(SC[C@H]2O[C@@H](n3cnc4c(N)ncnc43)[C@H](O)[C@@H]2O)c1` [2(G)(28)], the activity at 50 µM was 4% and the “MT-A—10: initial velocity as a percentage of the initial velocity with MTA as substrate” value was determined as 6%.
On to `Nc1ncnc2c1ncn2[C@@H]1O[C@H](CSc2cccc(Br)c2)[C@@H](O)[C@H]1O` [2(G)(29), (2R, 3R, 4S, 5S)-2-(6-amino-9H-purin-9-yl)-5-{[(3-bromophenyl)-thio]methyl}tetrahydro-furan-3,4-diol], for which the activity at 50 µM turned out to be 19% and the “MT-A—10: initial velocity as a percentage of the initial velocity with MTA as substrate” value is recorded as 21%.
Regarding `C#CCSc1nnc(SC[C@H]2O[C@@H](n3cnc4c(N)ncnc43)[C@H](O)[C@@H]2O)s1` [2(G)(30), (2R, 3R, 4S, 5S)-2-(6-amino-9H-purin-9-yl)-5-({[5-(prop-2-yn-1-ylthio)-1,3,4-thiodiazol-2-yl]thio}methyl)tetra-hydrofuran-3,4-diol], the activity at 50 µM came to 12% and the “MT-A—10: initial velocity as a percentage of the initial velocity with MTA as substrate” value stood at 11%.
For the molecule `Cn1c(O)nnc1SC[C@H]1O[C@@H](n2cnc3c(N)ncnc32)[C@H](O)[C@@H]1O` [2(G)(31), (2R, 3R, 4S, 5S)-2-(6-amino-9H-purin-9-yl)-5-{[(5-hydroxy-4-methyl-4H-1,2,4-triazol-3-yl)-thio]methyl}tetrahydro-furan-3,4-diol], the activity at 50 µM stood at 50% and the “MT-A—10: initial velocity as a percentage of the initial velocity with MTA as substrate” value stood at 46%.
As to `Cc1cc(C)n2nc(SC[C@H]3O[C@@H](n4cnc5c(N)ncnc54)[C@H](O)[C@@H]3O)nc2n1` [2(G)(32), (2R, 3R, 4S, 5S)-2-(6-amino-9H-purin-9-yl)-5-{[(5,7-dimethyl[1,2,4]-triazolo[1,5-a]pyrimidin-2-yl)thio]methyl}tetra-hydrofuran-3,4-diol], the activity at 50 µM was 7% and the “MT-A—10: initial velocity as a percentage of the initial velocity with MTA as substrate” value worked out at 6%.
With `Nc1ncnc2c1ncn2[C@@H]1O[C@H](CSc2nccc(C(F)(F)F)n2)[C@@H](O)[C@H]1O` [2(G)(33), (2R, 3R, 4S, 5S)-2-(6-amino-9H-purin-9-yl)-5-({[4-(trifluoromethyl)-pyr-imidin-2-yl]thio}methyl)-tetrahydrofuran-3,4-diol], the activity at 50 µM came to 36% and the “MT-A—10: initial velocity as a percentage of the initial velocity with MTA as substrate” value stood at 28%.
On to `Cc1ccc(C(C)(C)C)cc1SC[C@H]1O[C@@H](n2cnc3c(N)ncnc32)[C@H](O)[C@@H]1O` [2(G)(34), (2R, 3R, 4S, 5S)-2-(6-amino-9H-purin-9-yl)-5-{[(5-tert-butyl-2-methyl-phenyl)thio]methyl}-tetrahydrofuran-3,4-diol], for which the activity at 50 µM was determined as 3% and the “MT-A—10: initial velocity as a percentage of the initial velocity with MTA as substrate” value was determined as 2%.
The corresponding values for `CC(C)c1ccc(SC[C@H]2O[C@@H](n3cnc4c(N)ncnc43)[C@H](O)[C@@H]2O)cc1` [2(G)(35), (2R, 3R, 4S, 5S)-2-(6-amino-9H-purin-9-yl)-5-{[(4-isopropylphenyl)-thio]methyl}tetrahydro-furan-3,4-diol] are 11% and 15%.
For `CCOC(=O)c1cnc(SC[C@H]2O[C@@H](n3cnc4c(N)ncnc43)[C@H](O)[C@@H]2O)nc1N` [2(G)(36)], the activity at 50 µM is 40% and the “MT-A—10: initial velocity as a percentage of the initial velocity with MTA as substrate” value is 35%.
`Cc1occc1SC[C@H]1O[C@@H](n2cnc3c(N)ncnc32)[C@H](O)[C@@H]1O` [2(G)(37), (2R, 3R, 4S, 5S)-2-(6-amino-9H-purin-9-yl)-5-{[(2-methyl-3-furyl)thio]methyl}tetra-hydrofuran-3,4-diol]: the activity at 50 µM was 26% and the “MT-A—10: initial velocity as a percentage of the initial velocity with MTA as substrate” value is on record as 10%.
Take `Nc1ncnc2c1ncn2[C@@H]1O[C@H](CSCC(F)(F)F)[C@@H](O)[C@H]1O` [2(G)(38), (2R, 3R, 4S, 5S)-2-(6-amino-9H-purin-9-yl)-5-{[(2,2,2-trifluoroethyl)-thio]methyl}tetrahydro-furan-3,4-diol]: the activity at 50 µM is 32% and the “MT-A—10: initial velocity as a percentage of the initial velocity with MTA as substrate” value worked out at 30%.
For `CC(C)(C)OC(=O)NCCSC[C@H]1O[C@@H](n2cnc3c(N)ncnc32)[C@H](O)[C@@H]1O` [2(G)(39), tert-butyl [2-({[(2S, 3S, 4R, 5R)-5-(6-amino-9H-purin-9-yl)-3,4-dihydroxytetrahydro-furan-2-yl]methyl}thio)-ethyl]carbamate], the activity at 50 µM stood at 8% and the “MT-A—10: initial velocity as a percentage of the initial velocity with MTA as substrate” value came out at 7%.
The like results for `Cc1cc(=O)oc2cc(SC[C@H]3O[C@@H](n4cnc5c(N)ncnc54)[C@H](O)[C@@H]3O)ccc12` [2(G)(40), 7-({[(2S, 3S, 4R, 5R)-5-(6-amino-9H-purin-9-yl)-3,4-dihydroxytetrahydro-furan-2-yl]methyl}thio)-4-methyl-2H-chromen-2-one] were, in that order, 10% and 6%.
As for `Nc1ncnc2c1ncn2[C@@H]1O[C@H](CSc2ncc(C(F)(F)F)cc2Cl)[C@@H](O)[C@H]1O` [2(G)(41), (2R, 3R, 4S, 5S)-2-(6-amino-9H-purin-9-yl)-5-({[3-chloro-5-(trifluoromethyl)pyridin-yl]thio}methyl)tetra-hydrofuran-3,4-diol], the activity at 50 µM stood at 7% and the “MT-A—10: initial velocity as a percentage of the initial velocity with MTA as substrate” value is given as 7%.
As to `Nc1ncnc2c1ncn2[C@@H]1O[C@H](CSc2ccc3ccccc3n2)[C@@H](O)[C@H]1O` [2(G)(42), (2R, 3R, 4S, 5S)-2-(6-amino-9H-purin-9-yl)-5-[(quinolin-2-ylthio)methyl]-tetrahydrofuran-3,4-diol], the activity at 50 µM was 47% and the “MT-A—10: initial velocity as a percentage of the initial velocity with MTA as substrate” value came to 38%.
For the molecule `Cc1cc(C)c(C#N)c(SC[C@H]2O[C@@H](n3cnc4c(N)ncnc43)[C@H](O)[C@@H]2O)n1` [2(G)(43), 2-({[(2S, 3S, 4R, 5R)-5-(6-amino-9H-purin-9-yl)-dihydroxytetrahydro-furan-2-yl]methyl}thio)-4,6-dimethylnicotino-nitrile], the activity at 50 µM worked out at 7% and the “MT-A—10: initial velocity as a percentage of the initial velocity with MTA as substrate” value is reported as 5%.
The corresponding values for `C=CCSC[C@H]1O[C@@H](n2cnc3c(N)ncnc32)[C@H](O)[C@@H]1O` [2(G)(44), (2R, 3R, 4S, 5S)-2-(6-amino-9H-purin-9-yl)-5-[(allythio)methyl]tetra-hydrofuran-3,4-diol] are 82% and 77%.
For the molecule `CC(C)SC[C@H]1O[C@@H](n2cnc3c(N)ncnc32)[C@H](O)[C@@H]1O` [2(G)(45), (2R, 3R, 4S, 5S)-2-(6-amino-9H-purin-9-yl)-5-[(isopropylthio)methyl]-tetrahydrofuran-3,4-diol], the activity at 50 µM came out at 57% and the “MT-A—10: initial velocity as a percentage of the initial velocity with MTA as substrate” value worked out at 53%.
